Source: patent US20080085874A1, “SMALL MOLECULE POTENTIATOR OF HORMONAL THERAPY FOR BREAST CANCER” (The Regents of the University of California, priority 2006, published 2008)
Counter-ions that a name gives are not always drawn. Like-named read-outs stand apart in the source and are kept apart here. Values belong to the compound of their own block, whether it stands above or below them.

How the values were obtained:
[1] = system: Bcl-2; test: Immunoblotting of Bcl-2 protein in MCF-7 cells; assay type: cell-based, human; settings: 72 hours
Protocol: (§1) Immunoblotting. MCF-7 cells were grown in 100 mm dishes and treated with ligands in triplicate. […] Whole cell extracts were separated by SDS-PAGE, transferred to a nitrocellulose membrane, and immunoblotted using standard methods with the following antibodies: ERα, Bik, Bcl-2, and β-tubulin (all from Santa Cruz Biotechnology, Santa Cruz, Calif.) and cyclin D1 (Zymed, San Francisco, Calif.).

[2] = system: Ishikawa endometrial adenocarcinoma cells; test: Cell proliferation assay in endometrial cells; assay type: cell-based; settings: 7 days, 750 μM VPA; for cell numbers / proliferation: 10 nM OH-Tam, 100 pM or 1 nM E2
From the text: (§2) Cell Culture and Ligands. MCF-7 cells were provided by C. Walker (MD Anderson Cancer Center, Houston, Tex.) and were routinely cultured in IMEM (Invitrogen, Grand Island, N.Y.) with 10% fetal calf serum (FBS) (Hyclone, Logan, Utah). Ishikawa cells were also provided by C. Walker and cultured in DMEM/Ham's F12 with 10% FBS. T47-D cells were obtained from ATCC and were routinely cultured in DMBM (Invitrogen) plus 10% FBS. ZR-75-1 cells were provided by B. Hahn (University of California, San Francisco) and were routinely cultured in RPMI (Invitrogen) plus 10% PBS. MCF-7/neo and MCF-7/HER2 (clone 18) cells were also obtained from B. Hahn and cultured in DMEM plus 10% FBS. MCF-7aro cells were provided by S. Chen (Beckham Research Institute of the City of Hope) and routinely grown in DMEM/Ham's F12 plus 10% FBS. For all experiments cells were switched to phenol red-free media containing 5% charcoal/dextran-stripped FBS (Hyclone) for 3-5 days prior to start of the experiment. Cells were treated with ligands in media containing 2-5% stripped PBS for the indicated times.
(§3) Cell Proliferation Assays. Cells growing in 24-well dishes were treated with ligands in triplicate for the indicated times. Cells were trypsinized and counted electronically with a Coulter Counter (Coulter Electronics, Hialeah, Fla.). Alternatively, cell proliferation was measured using a fluorescent DNA-binding assay, CyQUANT (Invitrogen) in which cells were treated with ligands in triplicate in 96-well plates for the indicated times and assayed according to the manufacturer's instructions.

[3] = system: endogenous ERα at estrogen response element (ERE); test: ERE-Luc luciferase reporter gene transfection assay; settings: for ERE-Luc transcription: 24 hours
Protocol: MCF-7 cells growing in 12-well dishes were transfected with ERE-Luc and β-galactosidase reporter gene using Lipofectamine 2000 transfection reagent (Invitrogen) according to manufacturer's instructions. […] Five hours after transfection, cells were treated in triplicate with ligands and harvested 24 hours later using a lysis buffer containing 100 MM TrisHCl, 1% Triton-X100 and 1.μ/ml dithiothreitol. Reporter gene activity was measured using assay kits for Luciferase (Promega, Madison, Wis.) and β-galactosidase (Tropix, Bedford, Mass.), according to manufacturer's instructions.

[4] = system: MCF-7 cells; test: Cell proliferation assay (Coulter Counter or CyQUANT fluorescent DNA-binding assay) in MCF-7 cells; assay type: cell-based, human; settings: for E2-stimulated growth, antiestrogen alone / E2-stimulated growth, antiestrogen plus VPA: 100 pM E2, 7 days, fulvestrant at higher concentrations; for E2-stimulated growth, antiestrogen plus VPA: plus 750 μM VPA; for effect of HDAC inhibitor on antiproliferative action of tamoxifen: range of HDAC inhibitor doses with 10 nM OH-Tam
From the text: as §2, §3

[5] = system: MCF-7 cells; test: Annexin V apoptosis assay; assay type: cell-based, human; settings: 72 hours, absence of E2
Protocol: Apoptosis. MCF-7 cells growing on coverslips were treated with ligands for 72 hours and unfixed cells were assayed with the Annexin-V-FLOUS Staining kit (Roche), according to manufacturer's instructions. Total cell number was determined by counting nuclei stained with Hoescht 33342 (Roche). Fluorescence was analyzed using a Zeiss Axioplan fluorescent microscope (Zeiss, Thomwood, N.Y.).

[6] = system: cyclin D1; test: Immunoblotting of cyclin D1 protein in MCF-7 cells; assay type: cell-based, human; settings: 72 hours
Protocol: as §1
(§4) Changes in protein expression from endogenous genes in MCF-7 cells treated for 72 hours with ligands was also evaluated.

[7] = system: MCF-7aro cells; test: Cell proliferation assay in MCF-7 cells with stably expressed aromatase; assay type: cell-based, human; settings: 5 days
From the text: as §2, with “Cells were treated with ligands in media containing 2-5% stripped PBS for the indicated times.” left out
as §3, with “Cells growing in 24-well dishes were treated with ligands in triplicate for the indicated times.” left out

[8] = system: MCF-7 cells; test: Phase microscopy of cell number and morphology; assay type: cell-based, human; settings: 6 days, 100 pM E2, 750 μM VPA, 10 nM OH-Tam
[9] = system: ERα; test: Immunoblotting of ERα protein in MCF-7 cells; assay type: cell-based, human; settings: 72 hours
Protocol: as §1, §4

[10] = system: MCF-7 cells; test: Flow cytometry cell cycle distribution (DNA content); assay type: cell-based, human; settings: 48 hours
Protocol: Flow cytometry. MCF-7 cells growing in 100 mm dishes were treated with ligands for 48 hours, then trypsinized and fixed in 70% ethanol and stained with […] propidium iodide (Roche, Nutley, N.J.). DNA content was obtained by measuring 10,000 events on a FACScalibur flow cytometer (BD Biosciences, San Jose, Calif.). The percentages of cells in each phase of the cell cycle were determined using the Watson (Pragmatic) model analyzed by FlowJo flow cytometry software (Treestar, San Carlos, Calif.).

[11] = system: MCF-7/HER2 cells; test: Cell proliferation assay in MCF-7 cells overexpressing HER2/neu; assay type: cell-based, human; settings: 10 pM E2, 750 μM VPA and/or 10 nM OH-Tam, 7 days
From the text: as §2, with “Cells were treated with ligands in media containing 2-5% stripped PBS for the indicated times.” left out
as §3, with “Cells growing in 24-well dishes were treated with ligands in triplicate for the indicated times.” left out

SMILES: C[C@]12CC[C@@H]3c4ccc(O)cc4CC[C@H]3[C@@H]1CC[C@@H]2O [E2, 17β-estradiol]
Bcl-2 protein expression [1]: upregulated | cell numbers / proliferation [2]: increase was observed in cell numbers | stimulation of ERE-Luc transcription ([3]; 100 pM E2, 24 hours): approximately 13 fold

SMILES: O=C(c1ccc(OCCN2CCCCC2)cc1)c1c(-c2ccc(O)cc2)sc2cc(O)ccc12 [Raloxifene, raloxifene]
E2-stimulated growth, antiestrogen alone [4]: substantially decreased E2-stimulated growth | E2-stimulated growth, antiestrogen plus VPA [4]: VPA further enhanced its inhibitory effect

ERE-Luc transcription ([3]; high concentrations, alone): induced transcription
SMILES: CC(/C=C/C(=O)NO)=C\[C@@H](C)C(=O)c1ccc(N(C)C)cc1 [TSA, trichostatin A]
IC50 ([4]; 100 pM E2, day 7, read-out: IC50 (cell proliferation), HDAC inhibitor alone): 0.051 µM | effect of HDAC inhibitor on antiproliferative action of tamoxifen ([4]; 100 pM E2, day 7): enhanced the antiproliferative action of tamoxifen | IC50 ([4]; read-out: IC50 (cell proliferation), co-treatment with tamoxifen, with 10 nM OH-Tam, 100 pM E2, day 7): 0.032 µM

ERE-Luc transcription ([3]; high concentrations, alone): induced transcription
SMILES: CCCC(CCC)C(=O)O [VPA, valproic acid sodium salt (sodium 2-propylpentanoate)]
AnnexinV positive cells (apoptotic index), % of total cell population [5]: approximately 1.37% | cyclin D1 expression [6]: did not alter cyclin D1 expression | testosterone-induced proliferation, VPA with letrozole ([7]; 750 μM VPA, regardless of the letrozole dose tested): inhibited proliferation more than that observed with letrozole alone | Bcl-2 protein expression [1]: did not have any effect on Bcl-2 expression either alone or with tamoxifen | effect of VPA on E2- and tamoxifen-induced proliferation [2]: equally antagonized the proliferative effect of E2 and tamoxifen | cell numbers / proliferation [2]: dramatically inhibited proliferation | cell number and morphology by phase microscopy [8]: fewer cells as well as an increased number of floating cells | ERE-Luc transcription ([3]; 750 μM VPA, alone or with 10 nM OH-Tam): unable to activate transcription alone or in the presence of tamoxifen | E2-induced ERE-Luc transcriptional activity ([3]; high dose of VPA alone, in the presence of E2): inhibited E2-induced transcriptional activity | ERα protein expression ([9]; only observed in the absence of E2): slightly downregulated ERα protein expression | increased ERα expression seen with tamoxifen treatment ([9]; VPA with tamoxifen, absence of E2): attenuated the increased ERα expression | addition of VPA to tamoxifen on E2-induced cell cycle progression ([10]; E2 present): did not yield a detectable change | cell cycle distribution ([10]; E2 present): had no effect | cell cycle distribution ([10]; absence of E2): induced a small arrest in the G1 phase | cell proliferation [11]: inhibited by VPA | E2-induced cell proliferation ([4]; 750 μM VPA, 10 nM OH-Tam, 6-7 days, counted electronically): inhibition by VPA was even more dramatic | effect of VPA on tamoxifen inhibition of cell proliferation ([4]; 750 μM VPA, OH-Tam 0 to 500 nM, 100 pM E2, day 6): enhanced the relative efficacy of tamoxifen at all doses tested | cell proliferation ([4]; 750 μM VPA, without E2, 6-7 days, counted electronically): inhibited MCF 7 cells | inhibition at 750 µM ([4]; Homo sapiens, MCF7, 144 h, 750 μM VPA alone, 100 pM E2, day 6, fluorescent DNA-binding assay, read-out: inhibition of E2-stimulated cell proliferation): 25% | IC50 ([4]; Homo sapiens, MCF7, 168 h, 100 pM E2, day 7, doses of VPA ranging from 50 μM to 5 M, read-out: IC50 (cell proliferation), HDAC inhibitor alone): 800 µM | IC50 ([4]; Homo sapiens, MCF7, 168 h, read-out: IC50 (cell proliferation), tamoxifen co-treatment, with 10 nM OH-Tam, 100 pM E2, day 7): 500 µM | slowing of breast cancer cell growth in combination ([4]; VPA 750 μM with rapamycin 0.05 nM, picropodophyllin 100 nM, tamoxifen 100 nM): combines effectively | slowing of breast cancer cell growth in combination ([4]; VPA 750 μM with rapamycin […], gefitinib 1 μM, with and without tamoxifen 100 nM): combines effectively | effect of HDAC inhibitor on antiproliferative action of tamoxifen ([4]; 100 pM E2, day 7): enhanced the action of tamoxifen

SMILES: NC(=O)N1c2ccccc2C=Cc2ccccc21 [carbamazepine]
slowing of breast cancer cell growth in combination ([4]; carbamazepine 50 μM with rapamycin 2 nM, picropodophyllin 100 nM, tamoxifen 10 nM): combines effectively

SMILES: C[C@]12CC[C@@H]3c4ccc(O)cc4C[C@@H](CCCCCCCCC[S+]([O-])CCCC(F)(F)C(F)(F)F)[C@H]3[C@@H]1CC[C@@H]2O (stereo partly drawn) [fulvestrant, Fulvestrant]
E2-stimulated growth, antiestrogen alone [4]: decreased E2-induced proliferation | E2-stimulated growth, sub-saturating fulvestrant plus VPA ([4]; fulvestrant 1 to 5 nM plus VPA): VPA enhanced the anti-proliferative effect of lower doses of fulvestrant in a dose responsive manner | E2-stimulated growth, antiestrogen plus VPA [4]: VPA did not further add to its inhibitory effect

SMILES: N#Cc1ccc(C(c2ccc(C#N)cc2)n2cncn2)cc1 [letrozole]
testosterone-induced proliferation ([7]; 1 nM testosterone): inhibited testosterone-induced proliferation in a dose responsive manner
